This passage reports IC50 results from patent US8372854B2, “Pyrrolo[2,3-D]pyrimidine compounds” (Pfizer Inc., priority 2009, dated 2013).

What is called IC50 is the concentration that inhibits the measured activity by half.

Each structure is given as a SMILES string.

What all share (type): biochemical
One test deals with T1, JAK3 (Homo sapiens, UniProt P52333).
T1 construct: purchased Invitrogen Corporation, Madison, Wis; PV3855
T1 sequence (P52333 1-1124): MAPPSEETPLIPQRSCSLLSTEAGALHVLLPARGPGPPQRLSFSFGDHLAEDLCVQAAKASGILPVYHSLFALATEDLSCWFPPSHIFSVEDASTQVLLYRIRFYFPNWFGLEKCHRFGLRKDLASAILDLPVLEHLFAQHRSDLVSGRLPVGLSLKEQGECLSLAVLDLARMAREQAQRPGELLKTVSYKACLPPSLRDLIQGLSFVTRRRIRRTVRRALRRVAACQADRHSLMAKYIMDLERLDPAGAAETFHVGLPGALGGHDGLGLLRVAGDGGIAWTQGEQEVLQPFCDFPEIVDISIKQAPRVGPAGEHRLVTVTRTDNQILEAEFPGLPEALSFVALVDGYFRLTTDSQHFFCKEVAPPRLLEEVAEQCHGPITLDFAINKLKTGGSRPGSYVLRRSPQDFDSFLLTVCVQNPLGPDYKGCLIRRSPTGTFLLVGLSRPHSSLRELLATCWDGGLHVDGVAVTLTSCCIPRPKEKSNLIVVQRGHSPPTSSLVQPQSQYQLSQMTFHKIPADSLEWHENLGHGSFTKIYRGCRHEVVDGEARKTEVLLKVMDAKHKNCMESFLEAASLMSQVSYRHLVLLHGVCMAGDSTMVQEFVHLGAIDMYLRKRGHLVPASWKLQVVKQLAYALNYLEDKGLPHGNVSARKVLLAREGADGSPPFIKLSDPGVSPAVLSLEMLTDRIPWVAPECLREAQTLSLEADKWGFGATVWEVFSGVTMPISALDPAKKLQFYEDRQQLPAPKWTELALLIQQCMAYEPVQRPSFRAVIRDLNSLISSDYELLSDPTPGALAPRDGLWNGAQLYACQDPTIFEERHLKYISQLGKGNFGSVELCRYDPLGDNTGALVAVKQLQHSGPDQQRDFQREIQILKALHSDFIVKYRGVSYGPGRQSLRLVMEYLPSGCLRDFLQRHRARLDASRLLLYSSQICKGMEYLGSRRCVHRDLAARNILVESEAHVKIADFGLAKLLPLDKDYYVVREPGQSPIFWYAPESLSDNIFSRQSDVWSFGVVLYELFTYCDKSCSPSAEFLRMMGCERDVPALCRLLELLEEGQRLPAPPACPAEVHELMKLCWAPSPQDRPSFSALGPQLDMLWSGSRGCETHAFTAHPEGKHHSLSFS
Kind of test: JAK enzymatic assay (peptide mobility shift), JAK3. The following applies: recombinant JAK3 1 nM, ATP 4 μM, 1 μM JAKtide peptide, 90 minutes. The source says:
Recombinant JAK1 (Catalog Number PV4775), JAK2 (Catalog Number PV4210) and JAK3 (Catalog Number PV3855) were purchased from (Invitrogen Corporation, Madison, Wis.). Tyk2 (His-Tyk2 (888-1182, C936S, C1142S)) used in this study was expressed and purified at Pfizer Laboratories. Adenosine 5′-triphosphate (ATP) was obtained from (Sigma Chemical Company, St. Louis, Mo.). […] Coating Reagent 3 was purchased from (Caliper Life Sciences, Hopkinton, Mass.).
(§1) A peptide mobility shift assay was used to quantify the phosphorylation of the JAKtide (JAK2 and JAK3) or the IRS-1 peptide ([…] and Tyk2). Reactions were carried out in a 384-well plate (Matrical MP-101) in a 10 μL total volume. Reaction mixtures contained 20 mM HEPES, pH 7.4, 10 mM magnesium chloride, 0.01% bovine serum albumin (BSA), 0.0005% Tween-20, ATP (4 μM for JAK2 and JAK3, 40 μM for JAK1 and 7 μM for Tyk2)), 2% DMSO and 1 μM peptide substrate (JAKtide for JAK2 and JAK3 and IRS-1 peptide for JAK1 and Tyk2). Compounds were diluted serially in 100% dimethyl sulfoxide and tested in an 11 point dose response in duplicate or quadruplicate (200 nl of compound/DMSO was added per 10 μL reaction). The reactions were initiated by the addition of enzyme to the final concentration of 2 nM JAK2, 1 nM JAK3, 12 nM Tyk2 or 20 nM JAK1. The assay was run for 240 minutes for JAK1, 150 minutes for JAK2, 90 minutes for JAK3 and 70 minutes for Tyk2. The assays were stopped at the specified times with 20 uL of 140 mM HEPES, 22.5 mM EDTA and 0.15% Coating Reagent 3. The plates were placed on a LabChip 3000 (LC3000) instrument from (Caliper Life Sciences) to measure the formation of phosphorylated peptide. Data was analyzed using Hits Well Analyzer Software from (Caliper Life Sciences) to obtain the amount of product formed.
(§2) Data was then imported into an internal application where each data point is expressed as % inhibition based on uninhibited and no enzyme controls. Dose-response data is then fit using a 4 parameter logistic equation (Equation 1) to determine an IC50.
(§3) Where max is the fitted uninhibited value, min is the fitted complete inhibition value, and s is the slope factor.

A further test deals with T2, JAK2 (Homo sapiens, UniProt O60674).
T2 construct: purchased Invitrogen Corporation, Madison, Wis; PV4210
Kind of test: JAK enzymatic assay (peptide mobility shift), JAK2. The following applies: recombinant JAK2 2 nM, ATP 4 μM, 1 μM JAKtide peptide, 150 minutes.
Source text: (§4) Recombinant JAK1 (Catalog Number PV4775), JAK2 (Catalog Number PV4210) and JAK3 (Catalog Number PV3855) were purchased from (Invitrogen Corporation, Madison, Wis.). Tyk2 (His-Tyk2 (888-1182, C936S, C1142S)) used in this study was expressed and purified at Pfizer Laboratories. Adenosine 5′-triphosphate (ATP) was obtained from (Sigma Chemical Company, St. Louis, Mo.). The JAKtide peptide (peptide sequence, FITC-[…]) used for the JAK2 and JAK3 assays and the IRS-1 peptide (peptide sequence, 5-FAM-[…]) used for the JAK1 and Tyk2 assays were purchased from (American Peptide Company, Sunnyvale, Calif.). Coating Reagent 3 was purchased from (Caliper Life Sciences, Hopkinton, Mass.).
as §1, §2, §3

For a further test, the target named is T3, JAK1 (Homo sapiens, UniProt P23458).
T3 construct: purchased Invitrogen Corporation, Madison, Wis; PV4775
The test is described as follows: JAK enzymatic assay (peptide mobility shift), JAK1. To be noted: recombinant JAK1 20 nM, ATP 40 μM, 1 μM IRS-1 peptide, 240 minutes.
Source text: as §4, §1, §2, §3

T2 sequence (O60674 whole entry): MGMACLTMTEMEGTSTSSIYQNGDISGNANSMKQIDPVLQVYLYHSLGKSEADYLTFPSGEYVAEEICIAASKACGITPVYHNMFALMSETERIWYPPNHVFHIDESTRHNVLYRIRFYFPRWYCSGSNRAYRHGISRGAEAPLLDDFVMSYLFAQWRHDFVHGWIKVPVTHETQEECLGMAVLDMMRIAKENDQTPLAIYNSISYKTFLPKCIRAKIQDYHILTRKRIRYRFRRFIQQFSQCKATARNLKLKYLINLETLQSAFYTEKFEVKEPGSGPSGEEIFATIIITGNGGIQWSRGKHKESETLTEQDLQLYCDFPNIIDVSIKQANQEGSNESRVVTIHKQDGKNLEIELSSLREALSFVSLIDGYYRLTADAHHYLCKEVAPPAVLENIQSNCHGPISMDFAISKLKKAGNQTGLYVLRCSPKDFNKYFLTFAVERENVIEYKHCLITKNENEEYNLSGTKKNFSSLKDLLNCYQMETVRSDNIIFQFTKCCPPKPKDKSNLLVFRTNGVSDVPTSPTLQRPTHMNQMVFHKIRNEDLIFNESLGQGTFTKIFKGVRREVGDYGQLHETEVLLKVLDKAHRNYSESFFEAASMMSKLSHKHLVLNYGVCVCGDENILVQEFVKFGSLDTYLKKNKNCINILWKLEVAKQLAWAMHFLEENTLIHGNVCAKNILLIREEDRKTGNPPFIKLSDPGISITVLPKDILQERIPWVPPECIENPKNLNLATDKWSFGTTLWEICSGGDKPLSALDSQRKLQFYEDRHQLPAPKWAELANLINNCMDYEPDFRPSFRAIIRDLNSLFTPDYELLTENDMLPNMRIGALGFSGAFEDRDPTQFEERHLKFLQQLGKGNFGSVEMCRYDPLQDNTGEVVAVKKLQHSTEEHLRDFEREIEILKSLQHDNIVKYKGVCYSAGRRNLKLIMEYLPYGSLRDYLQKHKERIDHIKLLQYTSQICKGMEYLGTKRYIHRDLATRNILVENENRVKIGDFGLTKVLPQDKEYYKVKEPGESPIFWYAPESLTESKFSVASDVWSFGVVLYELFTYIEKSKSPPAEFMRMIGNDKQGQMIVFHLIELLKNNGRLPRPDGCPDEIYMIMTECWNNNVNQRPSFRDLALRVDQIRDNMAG
T3 sequence (P23458 whole entry): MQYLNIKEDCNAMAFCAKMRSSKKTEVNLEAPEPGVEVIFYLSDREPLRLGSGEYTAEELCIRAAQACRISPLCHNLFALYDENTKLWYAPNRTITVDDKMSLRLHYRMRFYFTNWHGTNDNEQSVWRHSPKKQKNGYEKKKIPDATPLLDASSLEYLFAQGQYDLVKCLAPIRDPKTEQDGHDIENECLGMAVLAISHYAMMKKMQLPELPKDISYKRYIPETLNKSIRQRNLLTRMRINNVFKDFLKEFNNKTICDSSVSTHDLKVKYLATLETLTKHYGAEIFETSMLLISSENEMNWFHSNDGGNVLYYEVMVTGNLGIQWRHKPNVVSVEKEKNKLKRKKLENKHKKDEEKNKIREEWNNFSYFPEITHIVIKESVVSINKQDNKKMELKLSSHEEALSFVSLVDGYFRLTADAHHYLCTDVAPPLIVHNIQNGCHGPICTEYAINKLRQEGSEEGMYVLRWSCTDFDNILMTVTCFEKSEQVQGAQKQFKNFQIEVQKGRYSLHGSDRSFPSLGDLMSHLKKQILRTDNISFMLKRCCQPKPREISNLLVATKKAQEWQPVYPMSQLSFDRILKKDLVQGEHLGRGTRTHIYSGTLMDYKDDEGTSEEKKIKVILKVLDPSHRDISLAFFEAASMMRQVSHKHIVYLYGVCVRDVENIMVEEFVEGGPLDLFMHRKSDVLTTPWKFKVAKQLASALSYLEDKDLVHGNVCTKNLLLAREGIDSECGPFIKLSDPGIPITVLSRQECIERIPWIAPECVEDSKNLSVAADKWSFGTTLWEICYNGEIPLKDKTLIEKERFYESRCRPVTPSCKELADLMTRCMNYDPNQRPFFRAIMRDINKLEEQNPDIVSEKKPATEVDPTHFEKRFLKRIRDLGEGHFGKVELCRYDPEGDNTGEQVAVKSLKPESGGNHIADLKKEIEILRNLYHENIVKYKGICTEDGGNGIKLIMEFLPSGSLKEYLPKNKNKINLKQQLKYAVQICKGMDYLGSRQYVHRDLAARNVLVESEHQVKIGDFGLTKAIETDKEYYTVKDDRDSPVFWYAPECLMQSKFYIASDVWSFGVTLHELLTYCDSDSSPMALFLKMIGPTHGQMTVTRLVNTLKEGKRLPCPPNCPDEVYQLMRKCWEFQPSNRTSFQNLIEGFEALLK

As to `CN(c1ncnc2[nH]ccc12)[C@H]1CC[C@H](CS(=O)(=O)NC2CC2)CC1` [Example 1, N-cyclopropyl-1-{trans-4-[methyl(7H-pyrrolo[2,3-d]pyrimidin-4-yl)amino]cyclohexyl}methanesulfonamide], the IC50 was determined as 0.224 µM on JAK3, 0.0454 µM at JAK2 and 0.01 µM at JAK1.

As for `CN(c1ncnc2[nH]ccc12)[C@H]1CC[C@H](CS(=O)(=O)NCCc2ccc(S(N)(=O)=O)cc2)CC1` [Example 2, 4-(2-{[({trans-4-[methyl(7H-pyrrolo[2,3-d]pyrimidin-4-yl)amino]cyclohexyl}methyl)sulfonyl]amino}ethyl)benzene-sulfonamide], the concentration for half-maximal inhibition (IC50) at JAK3 worked out at 0.166 µM; at JAK2 it was 0.0149 µM; at JAK1, 0.00182 µM.

Turning to `CN(c1ncnc2[nH]ccc12)[C@H]1CC[C@H](CS(=O)(=O)NCCc2ccc(O)cc2)CC1` [Example 3, N-[2-(4-hydroxyphenyl)-ethyl]-1-{trans-4-[methyl-(7H-pyrrolo[2,3-d]pyrimidin-4-yl)amino]cyclohexyl}-methanesulfonamide], the concentration for half-maximal inhibition (IC50) is 0.257 µM on JAK3, 0.0286 µM on JAK2 and 0.00225 µM on JAK1.

For `Cc1ccc(CCNS(=O)(=O)C[C@H]2CC[C@H](N(C)c3ncnc4[nH]ccc34)CC2)c(C)c1` [Example 4, N-[2-(2,4-dimethylphenyl)-ethyl]-1-{trans-4-[methyl-(7H-pyrrolo[2,3-d]pyrimidin-4-yl)amino]cyclohexyl}-methanesulfonamide], the values for the IC50 on JAK3, on JAK2 and at JAK1 were 0.139 µM, 0.00917 µM and 0.00301 µM, respectively.

As for `COc1ccccc1CCNS(=O)(=O)C[C@H]1CC[C@H](N(C)c2ncnc3[nH]ccc23)CC1` [Example 5, N-[2-(2-methoxyphenyl)-ethyl]-1-{trans-4-[methyl-(7H-pyrrolo[2,3-d]pyrimidin-4-yl)amino]cyclohexyl}-methanesulfonamide], the IC50 at JAK3 came out at 0.188 µM; on JAK2, 0.017 µM; on JAK1, 0.00378 µM.

For `CN(c1ncnc2[nH]ccc12)[C@H]1CC[C@H](CS(=O)(=O)NCC(F)(F)c2ccccc2)CC1` [Example 6, N-(2,2-difluoro-2-phenyl-ethyl)-1-{trans-4-[methyl-(7H-pyrrolo[2,3-d]pyrimidin-4-yl)amino]cyclohexyl}-methanesulfonamide], the IC50 at JAK3 stood at 0.101 µM; on JAK2, 0.0118 µM; on JAK1, 0.00422 µM.

As for `Cc1ccc(CCNS(=O)(=O)C[C@H]2CC[C@H](N(C)c3ncnc4[nH]ccc34)CC2)cc1` [Example 7, N-[2-(4-methylphenyl)-ethyl]-1-{trans-4-[methyl-(7H-pyrrolo[2,3-d]pyrimidin-4-yl)amino]cyclohexyl}-methanesulfonamide], the IC50 was 0.137 µM on JAK3, 0.0113 µM on JAK2 and 0.00444 µM at JAK1.

In the case of `CN(c1ncnc2[nH]ccc12)[C@H]1CC[C@H](CS(=O)(=O)NCC(C)(F)c2ccc(F)cc2)CC1` (stereo partly drawn) [Example 8, N-[2-fluoro-2-(4-fluoro-phenyl)propyl]-1-{trans-4-[methyl(7H-pyrrolo[2,3-d]-pyrimidin-4-yl)amino]-cyclohexyl}-methanesulfonamide], the IC50 at JAK3 was 0.403 µM; on JAK2, 0.0323 µM; on JAK1, 0.00605 µM.

In the case of `CN(c1ncnc2[nH]ccc12)[C@H]1CC[C@H](CS(=O)(=O)NCC(C)(F)c2cccc(F)c2)CC1` (stereo partly drawn) [Example 9, N-[2-fluoro-2-(3-fluoro-phenyl)propyl]-1-{trans-4-[methyl(7H-pyrrolo[2,3-d]-pyrimidin-4-yl)amino]-cyclohexyl}-methanesulfonamide], the IC50 on JAK3 is 0.531 µM; on JAK2, 0.0397 µM; at JAK1 it was 0.0105 µM.

For the compound `COc1cccc(CCNS(=O)(=O)C[C@H]2CC[C@H](N(C)c3ncnc4[nH]ccc34)CC2)c1` [Example 10, N-[2-(3-methoxyphenyl)-ethyl]-1-{trans-4-[methyl-(7H-pyrrolo[2,3-d]pyrimidin-4-yl)amino]cyclohexyl}-methanesulfonamide], the IC50 at JAK3 stood at 0.301 µM; on JAK2, 0.0341 µM; on JAK1 it was 0.011 µM.

Regarding `CN(c1ncnc2[nH]ccc12)[C@H]1CC[C@H](CS(=O)(=O)NCC(F)c2ccc(F)cc2)CC1` (stereo partly drawn) [Example 11, N-[2-fluoro-2-(4-fluoro-phenyl)ethyl]-1-{trans-4-[methyl(7H-pyrrolo[2,3-d]-pyrimidin-4-yl)amino]-cyclohexyl}-methanesulfonamide], the results for the IC50 on JAK3, on JAK2 and at JAK1 were 0.424 µM, 0.0619 µM and 0.0135 µM, respectively.

As to `CN(c1ncnc2[nH]ccc12)[C@H]1CC[C@H](CS(=O)(=O)NCCc2ccc(C(F)(F)F)cc2)CC1` [Example 12, 1-{trans-4-[methyl(7H-pyrrolo[2,3-d]pyrimidin-4-yl)amino]cyclohexyl}-N-{2-[4-(trifluoromethyl)-phenyl]ethyl}-methanesulfonamide], the figures for the IC50 at JAK3, on JAK2 and on JAK1 were 0.511 µM, 0.0555 µM and 0.0165 µM, respectively.

In the case of `CN(c1ncnc2[nH]ccc12)[C@H]1CC[C@H](CS(=O)(=O)NCCc2ccc(C(F)(F)F)cc2F)CC1` [Example 13, N-{2-[2-fluoro-4-(trifluoro-methyl)phenyl]ethyl}-1-{trans-4-[methyl(7H-pyrrolo[2,3-d]pyrimidin-4-yl)amino]cyclohexyl}-methanesulfonamide], the IC50 amounted to 0.0553 µM on JAK2 and 0.0174 µM at JAK1.

Regarding `CN(c1ncnc2[nH]ccc12)[C@H]1CC[C@H](CS(=O)(=O)NCCc2ccccc2F)CC1` [Example 14, N-[2-(2-fluorophenyl)ethyl]-1-{trans-4-[methyl(7H-pyrrolo[2,3-d]pyrimidin-4-yl)amino]cyclohexyl}methanesulfonamide], the values for the IC50 on JAK3, on JAK2 and at JAK1 were 0.148 µM, 0.0205 µM and 0.00465 µM, respectively.
